Columns and labels:
[1] = target: Gamma-aminobutyric acid receptor subunit alpha-1 (Rattus norvegicus, UniProt P62813)
Progesterone receptor [2] = target: T1, Progesterone receptor (Homo sapiens, UniProt P06401)
T1 sequence (P06401 whole entry): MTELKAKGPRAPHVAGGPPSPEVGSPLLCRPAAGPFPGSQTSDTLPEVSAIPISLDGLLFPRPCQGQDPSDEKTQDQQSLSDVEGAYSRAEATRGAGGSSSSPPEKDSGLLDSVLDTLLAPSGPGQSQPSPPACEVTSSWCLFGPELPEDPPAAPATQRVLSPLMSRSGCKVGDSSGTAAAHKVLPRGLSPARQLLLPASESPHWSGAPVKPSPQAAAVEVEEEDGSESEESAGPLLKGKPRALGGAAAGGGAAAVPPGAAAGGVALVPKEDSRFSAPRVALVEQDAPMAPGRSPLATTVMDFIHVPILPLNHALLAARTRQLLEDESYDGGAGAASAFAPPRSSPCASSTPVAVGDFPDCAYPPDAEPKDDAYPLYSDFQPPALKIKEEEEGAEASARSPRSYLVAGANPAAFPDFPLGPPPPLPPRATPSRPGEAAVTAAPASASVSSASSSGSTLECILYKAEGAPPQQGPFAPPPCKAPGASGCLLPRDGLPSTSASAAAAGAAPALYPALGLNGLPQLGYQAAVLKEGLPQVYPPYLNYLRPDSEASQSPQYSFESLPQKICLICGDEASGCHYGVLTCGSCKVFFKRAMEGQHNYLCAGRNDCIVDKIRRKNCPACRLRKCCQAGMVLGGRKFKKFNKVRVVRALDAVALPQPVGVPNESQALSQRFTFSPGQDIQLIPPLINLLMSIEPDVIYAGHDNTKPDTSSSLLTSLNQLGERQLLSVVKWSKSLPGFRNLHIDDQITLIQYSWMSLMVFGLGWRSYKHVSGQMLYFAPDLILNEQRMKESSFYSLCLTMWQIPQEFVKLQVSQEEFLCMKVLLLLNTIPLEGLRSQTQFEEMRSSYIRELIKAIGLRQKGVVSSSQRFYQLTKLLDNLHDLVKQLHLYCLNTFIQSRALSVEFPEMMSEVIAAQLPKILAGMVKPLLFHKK

[3] = target: T2, Cholecystokinin receptor type A (Homo sapiens, UniProt P32238)
T2 sequence (P32238 whole entry): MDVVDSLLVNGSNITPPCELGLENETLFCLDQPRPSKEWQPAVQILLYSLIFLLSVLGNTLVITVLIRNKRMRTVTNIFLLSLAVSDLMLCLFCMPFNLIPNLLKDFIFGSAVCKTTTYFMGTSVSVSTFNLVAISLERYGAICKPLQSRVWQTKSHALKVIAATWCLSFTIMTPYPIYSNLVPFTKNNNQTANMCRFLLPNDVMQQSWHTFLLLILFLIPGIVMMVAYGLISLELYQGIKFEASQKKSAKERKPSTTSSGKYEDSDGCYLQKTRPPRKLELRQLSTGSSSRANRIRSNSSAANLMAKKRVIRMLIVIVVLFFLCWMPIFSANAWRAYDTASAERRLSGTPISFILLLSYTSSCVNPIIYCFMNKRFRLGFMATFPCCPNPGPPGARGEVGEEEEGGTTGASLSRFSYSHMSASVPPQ

[4] = target: Neuronal acetylcholine receptor subunit alpha-4 (Homo sapiens, UniProt P43681)
[5] = target: 5-hydroxytryptamine receptor 2B (Homo sapiens, UniProt P41595); assay type: functional, cell-based
Progesterone receptor [6] = target: T1, Progesterone receptor; assay type: functional
[7] = target: T3, Equilibrative nucleoside transporter 1 (Homo sapiens, UniProt Q99808)
T3 sequence (Q99808 whole entry): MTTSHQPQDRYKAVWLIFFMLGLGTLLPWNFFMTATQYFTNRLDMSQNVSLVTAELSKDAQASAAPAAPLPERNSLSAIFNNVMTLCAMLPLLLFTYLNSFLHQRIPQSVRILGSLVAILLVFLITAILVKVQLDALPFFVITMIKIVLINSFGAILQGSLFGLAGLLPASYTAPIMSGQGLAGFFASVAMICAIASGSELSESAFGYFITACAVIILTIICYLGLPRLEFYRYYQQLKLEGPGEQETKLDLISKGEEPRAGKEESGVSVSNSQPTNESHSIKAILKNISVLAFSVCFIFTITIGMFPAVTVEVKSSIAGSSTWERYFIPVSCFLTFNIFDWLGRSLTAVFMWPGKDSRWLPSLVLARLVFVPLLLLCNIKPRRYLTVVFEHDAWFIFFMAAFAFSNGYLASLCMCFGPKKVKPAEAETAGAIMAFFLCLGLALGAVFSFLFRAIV

[8] = target: Sodium-dependent dopamine transporter (Homo sapiens, UniProt Q01959)
[9] = target: T4, Amine oxidase [flavin-containing] A (Homo sapiens, UniProt P21397); assay type: functional
T4 sequence (P21397 whole entry): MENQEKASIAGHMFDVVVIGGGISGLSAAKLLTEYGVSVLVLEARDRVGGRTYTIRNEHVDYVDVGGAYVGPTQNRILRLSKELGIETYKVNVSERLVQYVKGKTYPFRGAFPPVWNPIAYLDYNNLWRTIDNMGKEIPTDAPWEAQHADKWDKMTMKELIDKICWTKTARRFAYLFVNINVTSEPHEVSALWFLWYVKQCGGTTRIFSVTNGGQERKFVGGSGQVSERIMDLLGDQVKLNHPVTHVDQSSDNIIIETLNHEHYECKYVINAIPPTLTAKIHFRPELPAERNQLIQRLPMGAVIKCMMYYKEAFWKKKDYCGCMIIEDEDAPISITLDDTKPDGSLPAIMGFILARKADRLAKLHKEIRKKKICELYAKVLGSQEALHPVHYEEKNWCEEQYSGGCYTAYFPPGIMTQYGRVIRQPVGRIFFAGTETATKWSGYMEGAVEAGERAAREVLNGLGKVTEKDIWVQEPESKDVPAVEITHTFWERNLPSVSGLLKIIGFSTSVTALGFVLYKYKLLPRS

Measured: AC50
Also: assay procedure not described here.

Sequence of Sodium-dependent dopamine transporter (Q01959 whole entry): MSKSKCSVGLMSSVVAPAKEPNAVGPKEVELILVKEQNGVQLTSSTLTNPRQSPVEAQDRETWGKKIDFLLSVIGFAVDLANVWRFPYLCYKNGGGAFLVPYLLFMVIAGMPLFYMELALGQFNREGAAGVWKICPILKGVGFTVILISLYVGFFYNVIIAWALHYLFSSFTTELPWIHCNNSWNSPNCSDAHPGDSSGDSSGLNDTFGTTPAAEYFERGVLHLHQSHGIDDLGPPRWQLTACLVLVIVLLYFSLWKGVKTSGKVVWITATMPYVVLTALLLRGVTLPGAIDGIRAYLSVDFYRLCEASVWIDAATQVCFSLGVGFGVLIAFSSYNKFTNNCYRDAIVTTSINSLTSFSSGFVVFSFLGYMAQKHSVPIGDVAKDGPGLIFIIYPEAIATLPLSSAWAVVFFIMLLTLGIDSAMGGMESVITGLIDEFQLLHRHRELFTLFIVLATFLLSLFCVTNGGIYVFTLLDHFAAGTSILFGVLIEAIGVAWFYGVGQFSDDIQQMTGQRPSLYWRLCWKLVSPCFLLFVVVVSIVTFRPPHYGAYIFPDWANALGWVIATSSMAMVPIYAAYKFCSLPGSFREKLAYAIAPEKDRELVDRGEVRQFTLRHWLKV
Sequence of 5-hydroxytryptamine receptor 2B (P41595 whole entry): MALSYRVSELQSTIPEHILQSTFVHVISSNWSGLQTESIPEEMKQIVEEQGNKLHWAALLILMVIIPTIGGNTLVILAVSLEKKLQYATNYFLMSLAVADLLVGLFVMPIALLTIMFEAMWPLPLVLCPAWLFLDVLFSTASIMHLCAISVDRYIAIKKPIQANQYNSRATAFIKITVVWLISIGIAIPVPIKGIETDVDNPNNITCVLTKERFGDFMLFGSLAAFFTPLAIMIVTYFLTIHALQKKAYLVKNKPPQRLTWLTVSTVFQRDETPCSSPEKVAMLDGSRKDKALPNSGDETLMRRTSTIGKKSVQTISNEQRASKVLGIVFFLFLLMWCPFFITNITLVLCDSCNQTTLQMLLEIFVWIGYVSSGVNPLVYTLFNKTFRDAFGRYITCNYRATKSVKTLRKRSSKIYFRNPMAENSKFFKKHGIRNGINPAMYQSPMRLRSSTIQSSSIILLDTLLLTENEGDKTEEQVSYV
Sequence of Gamma-aminobutyric acid receptor subunit alpha-1 (P62813 whole entry): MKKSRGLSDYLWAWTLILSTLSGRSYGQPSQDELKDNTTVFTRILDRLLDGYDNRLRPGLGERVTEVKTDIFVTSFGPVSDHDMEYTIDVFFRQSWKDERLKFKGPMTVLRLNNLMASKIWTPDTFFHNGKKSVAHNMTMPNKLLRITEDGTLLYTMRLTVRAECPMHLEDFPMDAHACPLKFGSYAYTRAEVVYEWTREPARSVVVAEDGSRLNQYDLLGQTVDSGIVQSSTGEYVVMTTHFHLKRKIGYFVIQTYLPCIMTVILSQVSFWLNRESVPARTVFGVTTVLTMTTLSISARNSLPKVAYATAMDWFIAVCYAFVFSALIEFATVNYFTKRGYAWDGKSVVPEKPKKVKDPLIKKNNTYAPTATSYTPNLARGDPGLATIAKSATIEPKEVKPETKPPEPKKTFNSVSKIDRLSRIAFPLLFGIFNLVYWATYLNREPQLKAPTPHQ
Sequence of Neuronal acetylcholine receptor subunit alpha-4 (P43681 whole entry): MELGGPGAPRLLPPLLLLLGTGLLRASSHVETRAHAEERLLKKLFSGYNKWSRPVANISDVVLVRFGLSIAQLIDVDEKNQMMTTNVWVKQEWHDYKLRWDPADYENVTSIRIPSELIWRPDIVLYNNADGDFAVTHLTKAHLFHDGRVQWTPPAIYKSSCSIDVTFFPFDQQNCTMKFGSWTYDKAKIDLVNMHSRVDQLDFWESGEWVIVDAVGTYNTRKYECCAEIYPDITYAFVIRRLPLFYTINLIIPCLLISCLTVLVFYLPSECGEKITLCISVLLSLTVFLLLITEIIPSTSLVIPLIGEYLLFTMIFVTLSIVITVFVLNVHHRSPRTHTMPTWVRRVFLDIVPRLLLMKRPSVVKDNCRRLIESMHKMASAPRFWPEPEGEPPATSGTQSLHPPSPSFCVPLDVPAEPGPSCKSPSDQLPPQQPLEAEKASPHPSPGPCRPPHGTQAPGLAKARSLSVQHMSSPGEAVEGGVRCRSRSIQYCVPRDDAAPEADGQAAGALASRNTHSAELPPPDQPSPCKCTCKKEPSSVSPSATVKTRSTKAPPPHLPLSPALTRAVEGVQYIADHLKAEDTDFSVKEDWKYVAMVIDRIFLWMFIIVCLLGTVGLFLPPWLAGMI

CN1CCC[C@@H]1Cc1c[nH]c2ccc(CCS(=O)(=O)c3ccccc3)cc12
> 30 µM: [1] | Progesterone receptor [2]

O=C(Nc1cccc2c(=O)cc(-c3nnn[nH]3)oc12)c1ccc(OCCCCc2ccccc2)cc1
> 30 µM: [1]
6.23 µM: Progesterone receptor [2]

[H]/N=C(\N/C(=N/[H])NCCCCCCNC(=N)NC(=N)Nc1ccc(Cl)cc1)Nc1ccc(Cl)cc1 [CHLORHEXIDINE]
3 µM: [8]
> 10 µM: [9]
> 30 µM: [4] | [5] | Progesterone receptor [6] | [7]
15.9 µM: [3]

COC(=O)[C@H](c1ccccc1Cl)N1CCc2sccc2C1 [CLOPIDOGREL]
> 30 µM: [3] | [4] | [5] | Progesterone receptor [6] | [7] | [8] | [9]

N[C@@H](CSSC[C@H](N)C(=O)O)C(=O)O [CYSTINE]
> 30 µM: [1] | Progesterone receptor [2]

CC1(C)O[C@@H]2C[C@H]3[C@@H]4C[C@H](F)C5=CC(=O)C=C[C@]5(C)[C@H]4[C@@H](O)C[C@]3(C)[C@]2(C(=O)CO)O1 [FLUNISOLIDE]
0.64 µM: Progesterone receptor [6]
> 30 µM: [3] | [4] | [5] | [7] | [8] | [9]

CCC(=O)O[C@@H](O[P@](=O)(CCCCc1ccccc1)CC(=O)N1C[C@H](C2CCCCC2)C[C@H]1C(=O)O)C(C)C [FOSINOPRIL]
> 30 µM: [1] | [5] | Progesterone receptor [2] | [9]

Nc1nc(O)c2ncn(COC(CO)CO)c2n1 [GANCICLOVIR]
> 30 µM: [3] | [4] | [5] | Progesterone receptor [6] | [7] | [8] | [9]

C[C@H]1Oc2cc(cnc2N)-c2c(nn(C)c2C#N)CN(C)C(=O)c2ccc(F)cc21 [LORLATINIB]
> 30 µM: [3] | [4] | [5] | Progesterone receptor [6] | [7] | [8] | [9]

CC(C)(N)C(=O)N[C@H](Cc1c[nH]c2ccccc12)C(=O)N[C@H](Cc1c[nH]c2ccccc12)NC=O [MACIMORELIN]
> 30 µM: [1] | Progesterone receptor [2]

CNCCC=C1c2ccccc2CCc2ccccc21 [NORTRIPTYLINE]
3.2 µM: [8]
> 30 µM: [3] | [4] | [5] | Progesterone receptor [6] | [7] | [9]

COc1ccc(Cc2nccc3cc(OC)c(OC)cc23)cc1OC [PAPAVERINE]
> 30 µM: [3] | [4] | [5] | Progesterone receptor [6] | [8] | [9]
10 µM: [7]

From ChEMBL document CHEMBL5291721, “A preclinical secondary pharmacology resource illuminates target-adverse drug reaction associations of marketed drugs” (Nat Commun, 2023)
